Tests used:
HBsAg = test: Anti-HBSAg Assay (Procedure B), HBsAg; type: cell-based, hepatitis B virus; set-up: HBsAg Ave.: unit not given here
Summary of the method: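 HBV-producing Hep G2 2.2.15 cells were treated with five 3-fold dilutions for 9 days at 37 °C, with compound-containing medium renewed every 3 days. Secreted HBsAg measured by capture enzyme immunoassay on diluted supernatants. IC50 derived by non-linear regression of % inhibition versus PBS control.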

SARS = type: cell-based; conditions: 50 mg·mL; FIG. 4
HBeAg = test: Anti-HBSAg Assay (Procedure B), HBeAg; type: cell-based, hepatitis B virus; set-up: HBeAg Ave: unit not given here

## COC(=O)C1=COC(O)C2C1C(O)C(O)C2(C)O (mixture of isomers) [lamiridosin]
HBsAg; 9.375 μg/mL
  HBsAg Ave.: 1.152
  HBsAg Inhibition %: 0%
  HBsAg OD1: 1.080
  HBsAg OD2: 1.220
  HBsAg OD3: 1.157
HBsAg; 18.75 μg/mL
  HBsAg Ave.: 1.140
  HBsAg Inhibition %: 0%
  HBsAg OD1: 1.208
  HBsAg OD2: 1.105
  HBsAg OD3: 1.107
HBsAg; 37.5 μg/mL
  HBsAg Ave.: 0.765
  HBsAg Inhibition %: 29.4%
  HBsAg OD1: 0.797
  HBsAg OD2: 0.744
  HBsAg OD3: 0.755
HBsAg; 37.5 μg/ml, Table 2
  anti-HBSAg assay activity (in words): inactive
SARS
  activity against SARS virus entry: inactive
HBeAg; 9.375 μg/mL
  HBeAg Ave: 1.327
  HBeAg Inhibition %: 2.7%
  HBeAg OD1: 1.455
  HBeAg OD2: 1.416
  HBeAg OD3: 1.109
HBeAg; 18.75 μg/mL
  HBeAg Ave: 1.244
  HBeAg Inhibition %: 8.5%
  HBeAg OD1: 1.151
  HBeAg OD2: 1.171
  HBeAg OD3: 1.410
HBeAg; 37.5 μg/mL
  HBeAg Ave: 1.195
  HBeAg Inhibition %: 12.1%
  HBeAg OD1: 1.073
  HBeAg OD2: 1.275
  HBeAg OD3: 1.238

Reference: patent US20080319042A1, “Compositions and methods for treatment of liver disease” (priority 2007, published 2008)
